Laboratory results from patent US6383733B1, “Methods of screening for pharmacologically active compounds for the treatment of tumour diseases” (Boehringer Ingelheim International GmbH, priority 1996, dated 2002).

Assays:
EpRas cells [1] = assay: EF conversion of EpRas cells in collagen type I gels; format: cell-based, mouse
Description: (§1) Semiconfluent cultures of the cells to be analysed were trypsinised and adjusted to a final concentration of 4×10^4 cells per ml with ice-cold growth medium. Equal volumes of the cell suspension and an acidified solution of rat's tail collagen type 1 (Sigma) were mixed at 4° C., applied to 35 mm tissue culture dishes and incubated for 30 min at 37° C., in order to allow the solution to set to a gel. To allow the cells to form organotypical structures, the collagen gels were covered with a serum-free medium (MEGM; Promocel) containing bovine pituary extract (BPE), recombinant epidermal growth factor (EGF), hydrocortisone and insulin (in the concentrations recommended by the manufacturer). Where stated, 5 or 10% FCS or 5 ng/ml recombinant TGFβ1 (literature) were added. The medium covering the collagen gels was changed every two days. In order to neutralise the TGFβ1 produced by the cells or cell structures in the collagen gels a monoclonal antibody against TGFβ1 (Genzyme) or control antibody is used in concentrations of up to 50 μg/ml.
In order to identify the mechanism underlying the EF conversion, an experimental system was used with which EF conversion can be induced in vitro under defined and physiologically relevant conditions. For this purpose normal EpH4 cells or Ras-transformed subclones of these cells (Ep-Ras clones) were grown in reconstituted collagen type I gels, using serum-free medium. These conditions made it possible to add defined polypeptide growth factors and hormones which are known to be involved in the modulation of the epithelial phenotype. In gels of this kind, normal EpH4 cells developed into organ-like gland channels (tubuli) which frequently terminated in club-shaped hollow swellings. These structures looked very similar to the end buds of the developing mammary gland which are formed by primary breast epithelial cells both in collagen gels and also in vivo (FIG. 3A). These structures could be induced to produce milk proteins efficiently by the addition of lactogenic hormones. […]

EpH4 cells [2] = assay: In vitro morphogenesis and apoptosis of normal EpH4 cells in collagen gels; format: cell-based, mouse
Description: as §1
Since the TGFβ-super-family of polypeptide factors is involved primarily in morphogenetic processes during embryo development, the role of TGFβ1 in normal mammary gland development was also examined within the scope of the present invention. For this purpose normal breast epithelial cells of the cell line EpH4 were sown in serum-free collagen gels. Unlike in the experiments in Example 3, the serum needed during sowing for the collagen gel to set and washed out one day later was specially selected for a low content of TGFβ1. […] Thus, these structures bore some resemblance to the end buds of the developing mammary gland.

EpRas cells [3] = assay: Chicken embryo heart invasion assay with EpRas cells; format: cell-based, mouse; conditions: 7 days co-cultivation with heart fragments
Description: This assay was carried out as described by Behrens et al., 1993. In order to be able to distinguish invasive donor cells clearly from chicken heart cells, the test cells were charged with a vital fluorescent dye before examination. For this the cells were incubated for 1 hour in a glucose-containing Hanks saline solution containing […] 5,6-carboxy-2′,7′-dichlorofluorescein diacetate-succinimidyl ester (Molecular Probes) and 0.2×10^−6 M Pluronic F127. In this way the fluorescent dye is covalently bound to intracellular proteins without affecting the viability or behaviour of the cells, determined by various differentiation and proliferation assays. The labelled cells were grown for 24 hours at high density, scraped off the plastic dish and brought into contact with pre-cultivated heart fragments of 9 day old chicken embryos on the surface of a soft agar layer. After 7 days' cultivation the fragments with the adhering cells were collected, flash-frozen in liquid nitrogen, frozen sections were prepared, fixed in methanol/acetone and the fluorescent cells were determined by epifluorescence microscopy (Axiophot, Zeiss).

EpRas cells [4] = assay: Semi-quantitative PCR for TGFβ1-mRNA in cells grown in collagen gels; format: cell-based, mouse; conditions: EpRas clones, 5 ng/ml TGFβ1, five days in collagen gels
Description: Total RNA from cells, grown on plastic, in collagen gels or from tumours, was isolated and processed for the semi-quantitative PCR. A TGFβ1-specific fragment was amplified by means of RT-PCR under semi-quantitative conditions, using -actin primers as the internal control, as described by Leonard et al., 1993. For this the DNA was denatured at 94° C. for 1 min, the primers were annealed at 65° C. for 1 min, and the polymerase reactions were continued at 72° C. for 1 min. The amplification was continued for 20 and 30 cycles. The TGFβ1-specific primers TGGACCGCAA CAACGCCATC TATCCAGAAAA CC (forward) and TGGAGCTGAAGCAATAGTTGGTATCCAGGGCT (reverse) (Clontech Inc.) were used. The results of the PCR were quantitatively evaluated on an Image Quant Phospho-Imager. The values were standardised on the control product (-actin) and subsequently correlated with the value from control-3T3-fibroblast.
Finally the amounts of TGFβ1-mRNA expressed in the cells and the TGFβ1 -protein released into the culture medium were determined. Three different EpRas clones as well as the parental EpH4 clone were grown for five days in collagen gels. […] At the protein level essentially the same results were obtained when serum-free culture supernatants were analysed by ELISA and Western blot (FIG. 7B).

EpRas cells [5] = assay: TGFβ1-charged Slow Release Pellets coinjected with EpRas cells in mice; format: in vivo, mouse; conditions: 4 days after subcutaneous injection
Description: (§2) In order to expose Ras-transformed breast epithelial cells to activated TGFβ1 very early in tumour development, TGFβ1 -charged Slow Release Elvax Pellets and either EpRas-epithelial cells or normal EpH4H cells were coinjected subcutaneously in mice. For control purposes pellets, charged only with BSA, were coinjected. The pellets were prepared and charged according to the manufacturer's instructions.
FIGS. 8E, F: Epithelial EpRas cells were injected subcutaneously into nude mice without (E) or together with 3-Elvax Slow Release Pellets charged with recombinant (active) TGFβ1 (F). Frozen sections obtained from 4 day old tumours were double-stained with antibodies against cytokeratin (red) and vimentin (green). What is noticeable is the dramatic migration of cells into the surrounding tissue induced in the vicinity of the TGFβ1 -releasing pellets (white circle).

EpH4 cells [6] = assay: TGFβ1-charged Slow Release Pellets coinjected with EpH4 cells in mice; conditions: mouse, in vivo
Description: as §2

[7] = tested on: PAI-1 promoter-reporter gene construct in CT26 cells; assay: Transient PAI-1 promoter-reporter gene (3TP-lux) luciferase assay; format: cell-based, mouse; conditions: TGFβ added for 24 hours
Description: A PAI-1 promoter-reporter construct (reporter gene was luciferase; 3TP-lux, Wrana et al., 1992) was transfected by lipofectamine transfection (Gibco) according to the manufacturer's instructions into CT26 cells or CT26-TβRII-dn cells. 8 hours after transfection TGFβ1 was added for 24 hours, while the controls were left without TGFβ. Then cell lysates were prepared and the luciferase activity was measured in a Berthold Clinilumat as described by Wrana et al., 1992. In order to determine the transfection efficiency all the cells were cotransfected with an CMV-β-Gal reporter gene construct and the luciferase activities obtained were standardised by the β-Gal fluorescence intensity and by the protein concentration of the extract (Bradford).
CT26-control cells (CT26 controls) and 5 clones of CT26−TβRII-dn cells (CT26TβRII-dn 1-5) were transfected with a PAI-1 promoter-reporter gene construct (3TP-lux), the cells were stimulated with TGFβ (+TGFβ) or left unstimulated (−TGFβ) and the luciferase activity was measured in cell extracts. […]

Substance: TGFβ1: Transforming Growth Factor β1, recombinant polypeptide factor added to cells or charged in Slow Release Elvax Pellets
- apoptosis / EFC of Ha-Ras-containing cells (EpRas cells [1]; TGFβ1 5 ng/ml): not induced into apoptosis and undergo EFC without exception
- growth and phenotype of EpRas cells in collagen gel (EpRas cells [1]; TGFβ1 on its own, 5 ng/ml, serum-free collagen gel): causes EpRas cells to grow into invasive strings of cells similar to those induced by FCS
- effect among growth factors added to EpRas cells in collagen gels (EpRas cells [1]; compared with heregulin, scatter factor/HGF, acidic and basic FGF, PDGF): the only factor which showed striking and long-lasting effects on EpRas cells
- TGFβ1 concentration causing growth stop and apoptosis of normal epithelial cells (EpH4 cells [2]; EpH4 cells in collagen gels): > 0.25 ng/mL
- structures formed by EpH4 cells after transient TGFβ1 (EpH4 cells [2]; TGFβ1 0.1 ng/ml until structures had formed, then washed out): formed well-shaped tubular structures with typical lumina
- structures formed by EpH4 cells (EpH4 cells [2]; TGFβ1 0.1 ng/ml, serum selected for low TGFβ1 content): able to proliferate and form atypical structures which generally lacked lumina
- induction of EF conversion in non-tumorigenic control cells (EpH4 cells [2]; collagen gels): not able to induce EF conversion
- invasivity of EpRas cells converted by TGFβ1 treatment (EpRas cells [3]): capable of migrating efficiently into the heart fragments
- TGFβ1-mRNA produced by fibroblastoid cells induced by TGFβ1 (EpRas cells [4]): produced quantities of TGFβ1-mRNA which were comparable with those of control fibroblasts
- phenotype and migration of EpRas cells close to a TGFβ1 pellet (EpRas cells [5]): converted into irregularly shaped cells just 4 days after the injection and exhibited extensive migration into the surrounding host tissue
- phenotype of EpH4 cells close to TGFβ1 pellets (EpH4 cells [6]): could not noticeably influence the phenotype of these non-tumorigenic cells
- reporter gene transcription in CT26 control cells [7]: activates the reporter gene transcription to levels which are attained in the positive controls
